Where two headings read alike, the source gives them in different places.
Assays:
TRKA [1] = target: T1, TRKA (Homo sapiens (Human), UniProt P04629); assay: Isolated TRK enzyme assay (HTRF KinEASE-TK), TRKA; format: biochemical; details: isolated TRKA enzyme; read-out: TrkA enzyme potency
Target sequence in this assay (P04629 441-796): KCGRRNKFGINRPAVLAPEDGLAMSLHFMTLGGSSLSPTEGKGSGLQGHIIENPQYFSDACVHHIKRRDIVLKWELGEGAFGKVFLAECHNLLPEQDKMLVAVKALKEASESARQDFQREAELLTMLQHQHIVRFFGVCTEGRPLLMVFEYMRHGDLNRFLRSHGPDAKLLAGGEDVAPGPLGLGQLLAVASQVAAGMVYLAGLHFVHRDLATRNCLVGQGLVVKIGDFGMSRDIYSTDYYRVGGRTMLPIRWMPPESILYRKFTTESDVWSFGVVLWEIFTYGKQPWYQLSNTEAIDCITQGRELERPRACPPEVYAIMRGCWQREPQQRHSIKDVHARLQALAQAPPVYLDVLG

TRKB [2] = target: T2, TRKB (Homo sapiens (Human), UniProt Q16620); assay: biochemical
TRKA [3] = target: T1, TRKA; assay: Cell based DiscoveRx PathHunter antagonist assay, TRKA cell line; details: read-out: TrkA cell potency
Protocol: (§1) After the Detection Reagent addition, plates are covered and incubated at room temperature for 60 minutes. […] Test compound data are expressed as percentage inhibition defined by HPE and ZPE values for each plate. Percentage inhibition in the presence of test compound is plotted against compound concentration on a log scale to determine an IC50 from the resultant sigmoid curve. Cell Based Assays were carried out using Cell lines from DiscoveRx utilising their PathHunter technology and reagents in an antagonist assay:
(§2) The assays are based upon DiscoveRx's proprietary Enzyme Fragment Complementation (EFC) technology. In the case of the TRK cell lines, the enzyme acceptor (EA) protein is fused to a SH2 protein and the TRK receptor of interest has been tagged with a Prolink tag.
(§3) Upon neurotrophin binding, the TRK receptor becomes phosphorylated, and the tagged SH2 protein binds.
(§4) This means that the IC50 is a good measure of affinity and should be unaffected by concentration neurotrophin stimulant.
(§5) Cryopreserved PathHunter cells are used from either in-house produced batches or bulk batches bought directly from DiscoveRx. Cryopreserved cells are resuscitated, spun 1000 rpm for 4 min to remove freezing media, and resuspended in MEM+0.5% horse serum (both Invitrogen) to 5e^5 cells/ml. The cells are then plated using a Multidrop into Greiner white tissue culture treated plates at 20 ul/well and incubated for 24 h at 37° C., 5% CO2, high humidity. On the day of the assay, the cell plates are allowed to cool to room temperature for 30 min prior to the assay.
(§6) Plates containing 1 ul of serially diluted compound, standard and HPE/ZPE are diluted 1/66 in assay buffer (PBS minus Ca^2+, minus Mg^2+ with 0.05% pluronic F127) using a Wellmate. […] The plates are left at room temperature for a further 2 hours before addition of 10 ul of the DiscoveRx PathHunter detection reagent (made up by adding 1 part Galacton Star, 5 parts Emerald II and 19 parts Cell Assay Buffer as per the manufacturer's instructions).
(§7) After reagent addition, plates are covered and incubated at room temperature for 60 minutes. Luminescence signal is read using an Envision. Test compound data are expressed as percentage inhibition defined by HPE and ZPE values for each plate. Percentage inhibition in the presence of test compound is plotted against compound concentration on a log scale to determine an […] from the resultant sigmoid curve.
Target sequence in this assay (P04629 33-796): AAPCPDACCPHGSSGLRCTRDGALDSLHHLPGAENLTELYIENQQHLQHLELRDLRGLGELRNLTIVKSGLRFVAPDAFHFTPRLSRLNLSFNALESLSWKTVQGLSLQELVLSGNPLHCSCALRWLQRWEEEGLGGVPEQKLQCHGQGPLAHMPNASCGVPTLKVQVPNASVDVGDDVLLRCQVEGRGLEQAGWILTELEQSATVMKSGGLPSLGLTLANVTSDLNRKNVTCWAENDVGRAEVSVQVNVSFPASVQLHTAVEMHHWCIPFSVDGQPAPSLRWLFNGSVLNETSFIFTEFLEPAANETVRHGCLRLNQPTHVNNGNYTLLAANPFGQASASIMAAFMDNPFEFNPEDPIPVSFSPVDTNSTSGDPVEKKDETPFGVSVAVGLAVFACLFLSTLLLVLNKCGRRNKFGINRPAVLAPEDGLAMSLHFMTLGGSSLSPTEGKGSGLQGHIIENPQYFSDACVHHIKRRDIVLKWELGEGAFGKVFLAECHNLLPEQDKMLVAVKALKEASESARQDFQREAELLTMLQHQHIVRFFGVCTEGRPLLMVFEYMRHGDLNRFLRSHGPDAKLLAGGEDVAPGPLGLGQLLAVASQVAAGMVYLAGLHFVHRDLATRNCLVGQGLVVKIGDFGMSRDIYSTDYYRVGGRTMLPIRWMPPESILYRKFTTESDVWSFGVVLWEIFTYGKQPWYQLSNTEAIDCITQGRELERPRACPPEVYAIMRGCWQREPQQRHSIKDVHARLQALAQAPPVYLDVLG

TRKB [4] = target: T2, TRKB; assay: cell-based; details: TrkB cell potency, TRKB PathHunter cell line
Protocol: as §1, §2, §3, §4, §5, §6, §7

MDR1 = MDR1 (Homo sapiens (Human), UniProt P08183); assay: MDCK-MDR1 assay (in vitro brain penetration); format: in vitro ADME; details: human; for Papp B→A: read-out: MDCK MDR1 Papp BA; for Papp A→B: MDCK-MDR1, A to B, read-out: MDCK MDR1 Papp AB
Excerpt: MDCK-MDR1: MDCK-MDR1 data were collected according to the method described in “Are MDCK Cells Transfected with the Human MDR1 Gene a Good Model of the Human Intestinal Mucosa?”
http://www.springerlink.com/content/qfhqlqbr4fnp3 khf/fulltext.pdf

[5] = isolated TRKB enzyme, read-out: TrkB enzyme potency

T2 sequence (Q16620 32-822 limits assumed): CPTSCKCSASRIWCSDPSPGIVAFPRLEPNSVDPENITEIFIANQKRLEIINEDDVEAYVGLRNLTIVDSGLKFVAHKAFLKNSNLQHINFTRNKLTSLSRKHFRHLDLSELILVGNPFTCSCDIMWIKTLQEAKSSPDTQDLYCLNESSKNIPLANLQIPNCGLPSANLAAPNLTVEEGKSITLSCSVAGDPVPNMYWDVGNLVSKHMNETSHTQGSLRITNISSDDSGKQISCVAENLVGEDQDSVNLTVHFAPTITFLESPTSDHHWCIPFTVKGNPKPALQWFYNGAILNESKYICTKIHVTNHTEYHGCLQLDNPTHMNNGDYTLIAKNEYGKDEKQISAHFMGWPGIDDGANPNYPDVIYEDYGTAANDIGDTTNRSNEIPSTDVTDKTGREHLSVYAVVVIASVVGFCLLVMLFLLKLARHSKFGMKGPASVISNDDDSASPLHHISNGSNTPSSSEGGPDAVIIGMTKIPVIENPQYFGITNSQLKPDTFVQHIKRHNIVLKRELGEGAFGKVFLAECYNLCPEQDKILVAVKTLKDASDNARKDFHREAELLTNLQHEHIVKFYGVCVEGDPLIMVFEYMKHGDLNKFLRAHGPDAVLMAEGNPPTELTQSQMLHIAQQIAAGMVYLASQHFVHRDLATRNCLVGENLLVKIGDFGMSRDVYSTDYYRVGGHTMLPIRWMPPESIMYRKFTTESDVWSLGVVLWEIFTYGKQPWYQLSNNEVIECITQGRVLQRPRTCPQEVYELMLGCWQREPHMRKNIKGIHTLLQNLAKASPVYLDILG
MDR1, sequence (P08183 whole entry): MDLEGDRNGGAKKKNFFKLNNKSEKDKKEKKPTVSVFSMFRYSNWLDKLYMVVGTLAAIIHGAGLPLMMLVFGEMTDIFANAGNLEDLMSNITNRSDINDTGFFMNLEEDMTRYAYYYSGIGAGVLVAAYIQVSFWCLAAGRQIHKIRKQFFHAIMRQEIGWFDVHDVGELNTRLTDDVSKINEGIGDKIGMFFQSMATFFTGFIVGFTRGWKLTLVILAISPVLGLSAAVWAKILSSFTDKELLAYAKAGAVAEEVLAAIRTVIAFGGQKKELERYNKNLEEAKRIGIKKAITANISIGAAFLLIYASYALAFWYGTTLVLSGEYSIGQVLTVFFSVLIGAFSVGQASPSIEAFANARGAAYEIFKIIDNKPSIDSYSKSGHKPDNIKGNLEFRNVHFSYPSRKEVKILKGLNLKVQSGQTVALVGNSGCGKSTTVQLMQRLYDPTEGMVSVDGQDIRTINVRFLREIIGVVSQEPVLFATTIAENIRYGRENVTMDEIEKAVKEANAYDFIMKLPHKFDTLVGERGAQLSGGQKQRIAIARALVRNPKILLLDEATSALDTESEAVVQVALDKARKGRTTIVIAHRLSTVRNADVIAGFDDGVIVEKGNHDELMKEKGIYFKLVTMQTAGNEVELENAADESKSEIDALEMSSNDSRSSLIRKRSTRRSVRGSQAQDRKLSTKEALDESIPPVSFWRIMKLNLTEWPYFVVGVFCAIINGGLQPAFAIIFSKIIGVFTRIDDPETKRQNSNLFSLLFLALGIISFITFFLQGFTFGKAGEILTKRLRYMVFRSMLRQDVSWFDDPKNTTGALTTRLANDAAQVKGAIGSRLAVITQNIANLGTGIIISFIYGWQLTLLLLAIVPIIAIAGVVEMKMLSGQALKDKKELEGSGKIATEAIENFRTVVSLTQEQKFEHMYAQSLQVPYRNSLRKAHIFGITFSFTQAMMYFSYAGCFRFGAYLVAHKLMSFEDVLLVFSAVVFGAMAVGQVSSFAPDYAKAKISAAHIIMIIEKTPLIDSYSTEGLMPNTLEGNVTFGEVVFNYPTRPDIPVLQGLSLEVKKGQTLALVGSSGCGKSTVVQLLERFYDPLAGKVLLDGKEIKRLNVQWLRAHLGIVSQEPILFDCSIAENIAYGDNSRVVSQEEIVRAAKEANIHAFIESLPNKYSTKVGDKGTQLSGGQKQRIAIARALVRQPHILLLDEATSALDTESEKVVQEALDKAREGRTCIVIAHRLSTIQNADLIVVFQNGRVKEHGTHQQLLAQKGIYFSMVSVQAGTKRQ

Row | SMILES | IC50 (TRKA [1]) [nM] | IC50 (TRKB [2]; [5]) [nM] | IC50 (TRKA [3]) [nM] | IC50 (TRKB [4]) [nM] | Papp B→A (MDR1; MDCK-MDR1, MDCK-MDR1, B to A) [×10⁻⁶ cm/s] | Papp A→B (MDR1) [×10⁻⁶ cm/s] | IC50 (TRKB [2]; TrkB enzyme potency) [nM] | Papp B→A (MDR1; MDCK-MDR1, B to A) [×10⁻⁶ cm/s]
1 | CC(CO)n1cc(C(=O)c2cncc(NC(=O)Cc3ccc(Cl)cn3)c2)c2cnc(N)nc21 (single isomer, unassigned) [Example 35, N-(5-{[2-amino-7-(2-hydroxy-1-methylethyl)-7H-pyrrolo[2,3-d]pyrimidin-5-yl]carbonyl}pyridin-3-yl)-2-(5-chloropyridin-2-yl)acetamide] | 8.9 | 223 | 103 | 37 | 5.3 | < 1 | – | –
2 | CC(C)(C)n1cc(C(=O)c2cncc(NC(=O)Cn3cc(C4CC4)cn3)c2)c2cncnc21 [Example 7, N-{5-[(7-tert-butyl-7H-pyrrolo[2,3-d]pyrimidin-5-yl)carbonyl]pyridin-3-yl}-2-(4-cyclopropyl-1H-pyrazol-1-yl)acetamide] | 11 | 41 | 2.1 | 0.8 | 20 | 5.6 | – | –
3 | C[C@@H](CO)n1cc(C(=O)c2cncc(NC(=O)Cn3ccc(C(F)(F)F)n3)c2)c2cncnc21 [Example 12, N-[5-({7-[(1S)-2-hydroxy-1-methylethyl]-7H-pyrrolo[2,3-d]pyrimidin-5-yl}carbonyl)pyridin-3-yl]-2-[3-(trifluoromethyl)-1H-pyrazol-1-yl]acetamide] | 9.2 | 547 | 68 | 22 | 3.1 | < 1 | – | –
4 | C[C@@H](CO)n1cc(C(=O)c2cncc(NC(=O)Cn3cc(C(F)(F)F)nn3)c2)c2cncnc21 [Example 13, N-[5-({7-[(1S)-2-hydroxy-1-methylethyl]-7H-pyrrolo[2,3-d]pyrimidin-5-yl}carbonyl)pyridin-3-yl]-2-[4-(trifluoromethyl)-1H-1,2,3-triazol-1-yl]acetamide] | 20 | 449 | 1130 | 184 | 1 | < 1 | – | –
5 | C[C@@H](CO)n1cc(C(=O)c2cncc(NC(=O)Cn3nc4ccccc4n3)c2)c2cncnc21 [Example 15, 2-(2H-benzotriazol-2-yl)-N-[5-({7-[(1S)-2-hydroxy-1-methylethyl]-7H-pyrrolo[2,3-d]pyrimidin-5-yl}carbonyl)pyridin-3-yl]acetamide] | 17 | – | 143 | 40 | – | < 1 | 514 | 15
6 | C[C@H](CO)n1cc(C(=O)c2cncc(NC(=O)Cc3ccc(F)cn3)c2)c2cncnc21 [Example 19, 2-(5-fluoropyridin-2-yl)-N-[5-({7-[(1R)-2-hydroxy-1-methylethyl]-7H-pyrrolo[2,3-d]pyrimidin-5-yl}carbonyl)pyridin-3-yl]acetamide] | 249 | – | 1840 | 206 | – | < 1 | 5480 | 8.5
7 | C[C@H](CO)n1cc(C(=O)c2cncc(NC(=O)Cc3ccc(C(F)(F)F)cc3)c2)c2cncnc21 [Example 20, N-[5-({7-[(1R)-2-hydroxy-1-methylethyl]-7H-pyrrolo[2,3-d]pyrimidin-5-yl}carbonyl)pyridin-3-yl]-2-[4-(trifluoromethyl)phenyl]acetamide] | 14 | 635 | 22 | 19 | 17 | < 1 | – | –
8 | CC(CO)n1cc(C(=O)c2cncc(NC(=O)Cn3cc(C4CC4)cn3)c2)c2cncnc21 (stereo not drawn) [Example 25, 2-(4-Cyclopropyl-1H-pyrazol-1-yl)-N-(5-{[7-(2-hydroxy-1-methylethyl)-7H-pyrrolo[2,3-d]pyrimidin-5-yl]carbonyl}pyridin-3-yl)acetamide] | 24 | 433 | 65 | 19 | 13 | < 1 | – | –
9 | CC(C)(CO)n1cc(C(=O)c2cncc(NC(=O)Cc3ccc(Cl)cc3)c2)c2cncnc21 [Example 28, 2-(4-chlorophenyl)-N-(5-{[7-(2-hydroxy-1,1-dimethylethyl)-7H-pyrrolo[2,3-d]pyrimidin-5-yl]carbonyl}pyridin-3-yl)acetamide] | 4.9 | – | 2.7 | 1.9 | – | < 1 | 75 | 20
10 | CC(C)(CO)n1cc(C(=O)c2cncc(NC(=O)Cc3ccc(Cl)cn3)c2)c2cncnc21 [Example 29, 2-(5-chloropyridin-2-yl)-N-(5-{[7-(2-hydroxy-1,1-dimethylethyl)-7H-pyrrolo[2,3-d]pyrimidin-5-yl]carbonyl}pyridin-3-yl)acetamide] | 2.8 | – | 5.8 | 4 | – | 1.3 | 68 | 23
11 | CC(C)(CO)n1cc(C(=O)c2cncc(NC(=O)Cn3ccc(C(F)(F)F)n3)c2)c2cncnc21 [Example 30, N-(5-{[7-(2-hydroxy-1,1-dimethylethyl)-7H-pyrrolo[2,3-d]pyrimidin-5-yl]carbonyl}pyridin-3-yl)-2-[3-(trifluoromethyl)-1H-pyrazol-1-yl]acetamide] | 4 | – | 11 | 7.5 | – | < 1 | 98 | 15
12 | CC(C)(CO)n1cc(C(=O)c2cncc(NC(=O)Cn3cc(C4CC4)cn3)c2)c2cncnc21 [Example 33, 2-(4-cyclopropyl-1H-pyrazol-1-yl)-N-(5-{[7-(2-hydroxy-1,1-dimethylethyl)-7H-pyrrolo[2,3-d]pyrimidin-5-yl]carbonyl}pyridin-3-yl)acetamide] | 5.7 | 96 | 2 | 1.6 | 24 | 1 | – | –
13 | Cc1cc(C(F)(F)F)nn1CC(=O)Nc1cncc(C(=O)c2cn(C(C)(C)CO)c3nc(N)ncc23)c1 [Example 47, N-(5-{[2-Amino-7-(2-hydroxy-1,1-dimethylethyl)-7H-pyrrolo[2,3-d]pyrimidin-5-yl]carbonyl}pyridin-3-yl)-2-[5-methyl-3-(trifluoromethyl)-1H-pyrazol-1-yl]acetamide] | 25 | 27 | 35 | 13 | 21 | < 1 | – | –
14 | CC(C)(CO)n1cc(C(=O)c2cncc(NC(=O)Cc3ccc(F)cc3F)c2)c2cnc(N)nc21 [Example 50, N-(5-{[2-amino-7-(2-hydroxy-1,1-dimethylethyl)-7H-pyrrolo[2,3-d]pyrimidin-5-yl]carbonyl}pyridin-3-yl)-2-(2,4-difluorophenyl)acetamide] | 6.6 | 143 | 10 | 2.1 | 24 | < 1 | – | –
15 | CC(C)(CO)n1cc(C(=O)c2cncc(NC(=O)Cn3nc4ccccc4n3)c2)c2cnc(N)nc21 [Example 55, N-(5-{[2-Amino-7-(2-hydroxy-1,1-dimethylethyl)-7H-pyrrolo[2,3-d]pyrimidin-5-yl]carbonyl}pyridin-3-yl)-2-(2H-benzotriazol-2-yl)acetamide] | 7 | – | 12 | 4.5 | – | < 1 | 179 | 20
16 | CC(C)(CO)n1cc(C(=O)c2cncc(NC(=O)Cn3cc(C4CC4)nn3)c2)c2cnc(N)nc21 [Example 56, N-(5-{[2-Amino-7-(2-hydroxy-1,1-dimethylethyl)-7H-pyrrolo[2,3-d]pyrimidin-5-yl]carbonyl}pyridin-3-yl)-2-(4-cyclopropyl-1H-1,2,3-triazol-1-yl)acetamide] | 9.5 | – | 451 | 517 | – | 1.1 | 962 | 1

Reference: US8846698B2, “Pyrrolo[2,3-d]pyrimidine tropomysin-related kinase inhibitors” (Pfizer Limited, priority 2011, dated 2014)
